Reference: PubChem BioAssay AID449764 (Southern Research Specialized Biocontainment Screening …, 2010)

Test system: Mycobacterium tuberculosis H37Rv growth inhibition, no glycerol
Experiment: Mycobacterium tuberculosis H37Rv growth inhibition, no glycerol, confirmatory dose response (AID 449764);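 further: growth read after 7 days of incubation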
Details: for IC90: measured here: IC90 growth inhibition

Row | SMILES | IC50 [µM] | IC90 [µM]
1 | CN(CCCC1CCCC1)C(=O)CCc1nnc(-c2ccccc2)o1 | 16.9 | 28
2 | Cc1nn(-c2ccccc2)c(Cl)c1C(=O)Nc1nnc(C2CCCCC2)s1 | – | > 50
3 | CCN1CCN(Cc2ccc(NC(=O)c3ccc(C)c(/C=C/c4cnc(Nc5cc(N6CCNCC6)nc(C)n5)cn4)c3)cc2C(F)(F)F)CC1 | 66.6 | 89.8
4 | COc1cccc(-n2nnc3c(=O)n(CC(=O)N4CCC(Cc5ccccc5)CC4)cnc32)c1 | 51.2 | > 100
5 | COc1ccc(-c2nnn(CC(=O)OC3CCCCC3)n2)cc1OC | 20.6 | > 100
6 | CN(C)C/C=C/C(=O)Nc1cccc(-c2c[nH]c3ncnc(Oc4ccc(NC(=O)CC(=O)Nc5ccc(F)cc5)cc4F)c23)c1 | 12.3 | 14
7 | CCCn1nnc(NC(=O)COc2ccc(CC)cc2)n1 | 48.4 | > 100
8 | COc1ccccc1NC(=O)CN1CCN(CC(=O)Nc2ccc3c(c2)OCO3)CC1 | 39.2 | 60
9 | C/C(O)=C\c1nc2ccccc2oc1=O | 0.75 | 0.89
10 | c1ccc(-n2cnc3cc(NCc4cccs4)ccc32)cc1 | 89 | > 100
11 | Cc1ccn2nc(S(=O)(=O)Nc3c(F)cccc3F)nc2n1 | 9.62 | 11.5
12 | COc1cc(/C=C(\C#N)c2nc3c(s2)CC(C)CC3)ccc1O (centres undefined) | 45.5 | 51.4
13 | COc1ccc(-c2ccc(C#N)c(SCC(=O)OCc3ccccc3)n2)cc1OC | 23.9 | 26.8
14 | Cc1[nH]n(S(=O)(=O)Cc2ccccc2)c(=O)c1N=Nc1ccccc1Cl | 18.3 | 28.7
15 | CCN(CC(=O)NCc1cccs1)C(=O)c1ccc([N+](=O)[O-])o1 | 91.9 | > 100
16 | COCC(=O)O[C@]1(CCN(C)CCCc2nc3ccccc3[nH]2)CCc2cc(F)ccc2[C@@H]1C(C)C | 45.4 | 53.2
17 | CN(Cc1ccc(Br)cc1)C(=O)CCN1C(=O)c2cccc([N+](=O)[O-])c2C1=O | 97.3 | > 100
18 | CCOc1ccc(-c2cc(C(=O)NCCCn3ccnc3)c3cc(Br)ccc3n2)cc1 | 24.9 | 27.6
19 | O=C(Cn1ncc(Cl)c(Cl)c1=O)c1ccc2c(c1)OCCO2 | 10.4 | 15.7
20 | CC(C)(C)c1ccc(OCCCC(=O)NC2=NCCS2)cc1 | 38.7 | 48.9
21 | Cc1nc2sccn2c(=O)c1CCN1CCC(=C(c2ccccc2)c2ccc(F)cc2)CC1 | 35.8 | 51.2

Row | SMILES | IC50 [µM] | IC90 [µM]
22 | S=C(Nc1ccc(Cl)cc1)Nc1cccc2cnccc12 | 5.63 | 5.92
23 | CCOC(=O)c1cc2cc3ccccc3cc2oc1=O | 84.8 | > 100
24 | CCN(CC)C(=O)c1cc([N+](=O)[O-])cc2c1-c1ccc([N+](=O)[O-])cc1C2=C(C#N)C#N | 21.7 | 24.3
25 | CN1/C(=C\C(=O)C[n+]2ccc(C(=O)c3ccccc3)cc2)C(C)(C)c2ccccc21 | 13.3 | 21.1
26 | COC(=O)c1ccc(CSc2nc(C(F)(F)F)c3c(c2C#N)CCC3)o1 | – | > 100
27 | COc1cccc(NC(=S)/C(=C(\[O-])c2cc(C)n(-c3ccccc3F)c2C)[n+]2ccc(N(C)C)cc2)c1 | 70.2 | 90.3
28 | COc1ccc2c(c1)[C@@H]1[C@H](CO2)[C@H](c2ccccc2)[C@]2(C)C(=O)Nc3ccc(C)cc3C(=O)N12 | 71.1 | > 100
29 | Cc1ccc(C2=NNC3(CCOC(C)(C)C3)S2)cc1 (centres undefined) | 27.1 | 41.3
30 | Cc1ccc(NS(=O)(=O)c2ccc(NC(=O)CN(c3cc([N+](=O)[O-])ccc3C)S(C)(=O)=O)cc2)c(C)c1 | 33.1 | > 100
31 | N=C1C(c2nc3ccccc3[nH]2)=C(O)CN1NC(=O)c1c[nH]c2ccccc12 | 26.7 | 40.1
32 | COC(=O)C(CCSC)NC(=O)c1cn(-c2ccc(OC)cc2)c(=O)c2ccccc12 (centres undefined) | 24.3 | > 25
33 | Cn1ccc(=Nc2ccc(NC(=O)c3ccc(N=c4ccn(C)c5ccc([N+](=O)[O-])cc45)cc3)cc2)cc1 | < 0.2 | < 0.2
34 | Cc1cccc(-c2ncc(CN3CCC(CO)(CCCc4ccccc4)CC3)cn2)c1 | 48.5 | 55.1
35 | CCOC(=O)/C(=N/Nc1ccccc1)c1csc(Nc2ccccc2)n1 | 41.6 | > 100
36 | COc1cccc(CC2(CO)CCCN(Cc3[nH]c4ccc(C)cc4c3C)C2)c1 (centres undefined) | 40.8 | 55.8
37 | CCOC(=O)CSCC(=O)N1CCC(Cc2ccccc2)CC1 | 9.38 | 16.2
38 | CC(=NCc1ccc2c(c1)OCO2)C1=C(O)c2ccccc2C1=O | < 0.2 | 1.4
39 | Cc1ccc(C(=O)c2oc3ccc(Cl)cc3c2NC(=O)CN2CCN(C)CC2)cc1 | 14.9 | 19.6
40 | COc1cc2nc(N3CCN(c4cc(C)ccc4C)CC3)nc(N)c2cc1OC | 15.3 | 18.7
41 | Cc1cc(-c2c(C)[nH]n(-c3ccccc3)c2=O)n[nH]1 | 39.4 | > 100
42 | Cc1ccnc(NC(=O)COc2ccc3c(c2)CCC3)c1 | 85.7 | > 100

Row | SMILES | IC50 [µM] | IC90 [µM]
43 | N#Cc1cccc(NC(=O)N2CCC(c3nc4c(nnn4Cc4cccc(Cl)c4)c(=O)[nH]3)CC2)c1 | 21.2 | 23.3
44 | C[C@]12CC[C@@H]3c4ccc(O)cc4CC[C@H]3[C@@H]1CC[C@@H]2OC(=O)CCC1CCCC1 | 14.5 | 35.3
45 | COCc1cc(=O)[nH]c(Nc2nc3ccccc3o2)n1 | 26.4 | 48
46 | Cc1cc(Br)ccc1NC(=O)c1cnc(N2CCN(c3ccccn3)CC2)c2ccccc12 | 2.34 | 3.49
47 | Cc1ccc(-c2noc(C3CCCN(C(=O)c4ccc(C(C)(C)C)cc4)C3)n2)o1 (centres undefined) | 53.9 | 82.6
48 | COC(=O)CSc1[nH]c2ccc(Br)cc2c1[N+](=O)[O-] | 15.1 | 25
49 | COC(=O)[C@H](CC(C)C)NC(=O)c1cc2c(cn1)[nH]c1ccccc12 | 19.9 | 39.8
50 | Cc1ccc(-n2cccc2C(=S)N=P(N(C)C)(N(C)C)N(C)C)cc1 | 24.6 | 26.1
51 | CC1CC2=C(CC1/C=N/NC(N)=S)C(C)(C)CCC2 (centres undefined) | 18.3 | 26.8
52 | COc1ccc(NC(=O)CSC2=C(C#N)C(c3ccco3)C(C(=O)Nc3nc4ccccc4s3)=C(C)N2)cc1 (centres undefined) | 7.09 | 16.4
53 | Cc1ccc2nc3c(cc(C(=O)NCc4ccco4)c(=N)n3Cc3ccco3)c(=O)n2c1 | 53.6 | > 100
54 | COc1ccc(C(CC(=O)c2ccccc2)S(=O)(=O)c2ccc(C)cc2)cc1 (centres undefined) | 56.3 | 92.2
55 | COc1cccc(/C=N/Nc2ncnc3scc(-c4ccccc4)c23)c1O | 5.65 | 6.44
56 | O=C(N/N=C(\c1ccccc1)c1ccccn1)c1ccccc1Cl | 12.1 | 15.5
57 | COC(=O)c1cc(=O)n(-c2ccc(F)cc2)c(=Nc2ccc(F)cc2)s1 | 0.46 | 1.24
58 | Cc1cc(=O)n2[nH]c(Nc3cccc(Cl)c3)nc2n1 | 29.1 | 68
59 | COc1ccc(NCc2nc3ccccc3n2CCOc2ccccc2)cc1 | 69.5 | 88.6
60 | Cc1cc(C(=O)N[C@H](c2ccccc2)[C@@]2(C)C[C@@H]2[C@@H](C)C(=O)Nc2ccc3ccccc3c2)n(C)n1 | 39.1 | 53.9
61 | COc1cccc(-c2cnc(NCc3cc(Cl)ccc3O)n2C)c1 | 21.1 | 23.4
62 | COc1cccc(/C=N/Nc2nc(Nc3ccccc3)nc(-n3nc(C)cc3C)n2)c1O | < 0.2 | 0.25
63 | Cc1cccc(C2=N/C(=C\c3cccs3)C(=O)O2)c1 | 7.65 | > 100

Row | SMILES | IC50 [µM] | IC90 [µM]
64 | CCN(CC)c1ccc(N)cc1 | 8.96 | 11.2
65 | Cc1c([N+](=O)[O-])cnc(Sc2ccccc2)c1[N+](=O)[O-] | 5.8 | 9.94
66 | CCn1c(SCC(=O)OC2CCCCC2)nc2ccccc2c1=O | 40.3 | 55.1
67 | Cc1nc(SCC(=O)NC2CCCCC2)[nH]c(=O)c1C | < 0.2 | 0.57
68 | CC1(C)c2cc(Cl)ccc2-n2c1cc(O)c(-c1ccccc1)c2=O | 8.61 | 18.1
69 | COCCn1nnnc1C(c1cc2cc(OC)ccc2[nH]c1=O)N1CCC(Cc2ccccc2)CC1 (centres undefined) | 89.8 | > 100
70 | COc1cc2cc(C(c3nnnn3C(C)(C)C)N3CCc4ccccc43)c(=O)[nH]c2cc1OC (centres undefined) | – | > 100
71 | COc1ccc(/C=N/OCC(=O)OCC(=O)N(C)c2ccccc2)cc1 | 25.9 | 51.8
72 | Cc1cccc(-c2oc3ccc(-c4ccc5c(c4)OCO5)cc3c2C#Cc2cncn2C)c1 | 2.86 | 3.23
73 | CC1Cc2cc(-c3csc(NC(=O)Cc4cccs4)n3)ccc2N1S(C)(=O)=O (centres undefined) | 36.2 | > 100
74 | COc1cc(C)c(/C=C/C(C)=C/C=C/C(C)=C/C(=O)O)c(C)c1C | 24.7 | 43.5
75 | Cc1c2c(nc3ccccc13)CCC(C)C2 (centres undefined) | 21.7 | 37.1
76 | Cc1c(C(=O)Oc2cccc3ccccc23)cnn1-c1ccccc1 | 22.8 | 26.1
77 | O=C(NCC(c1cccs1)N1CCOCC1)c1cc([N+](=O)[O-])cc([N+](=O)[O-])c1 (centres undefined) | 0.81 | 1.5
78 | CN(C)c1ccnc2c[cH-]cc12.[Fe].c1ccc(-[c-]2[c-](-c3ccccc3)[c-](-c3ccccc3)[c-](-c3ccccc3)[c-]2-c2ccccc2)cc1 (centres undefined) | 14.3 | 19
79 | Cc1ccc(-c2ccc(C3C(C#N)=C(N)Oc4n[nH]c(C)c43)o2)cc1 (centres undefined) | – | > 100
80 | COc1ccc(-c2ccc(OC)c([C@H]3[C@@H]4C=CCC[C@@]4(C)C(=O)N3Cc3ccccc3)c2)cc1OC | 89.5 | > 100
81 | COc1ccc(OCCCC(=O)OC(C)C(=O)Nc2ccccc2[N+](=O)[O-])cc1 (centres undefined) | 44.9 | > 100
82 | CCN1/C(=C/c2ccc3cc(C)ccc3[n+]2CC)Sc2ccccc21 | 2.73 | 3.07
83 | C/C(CCc1ccc2c(c1)OCO2)=N\NC(=S)NC(C)C | 98.4 | > 100
84 | COc1ccc(C[C@H](N)C(=O)N[C@H]2[C@@H](O)[C@H](n3cnc4c(N(C)C)ncnc43)O[C@@H]2CO)cc1 | 3.95 | 5.82
